Test results taken from US8258134B2, “Pyridazinone glucokinase activators” (Hoffmann-La Roche Inc., priority 2008, dated 2012).

What follows are compounds tested against T1, Recombinant human liver GK1 (GST-GK) (Homo sapiens, UniProt P35557) (assay: Glucokinase in vitro assay (G6PDH-coupled NADH generation, OD340)). Settings: 30 uM test compound, 5 mM D-glucose.
T1 construct: made in house; host or cells: E. coli
T1 sequence (P35557 1-466 isoform P35557-2): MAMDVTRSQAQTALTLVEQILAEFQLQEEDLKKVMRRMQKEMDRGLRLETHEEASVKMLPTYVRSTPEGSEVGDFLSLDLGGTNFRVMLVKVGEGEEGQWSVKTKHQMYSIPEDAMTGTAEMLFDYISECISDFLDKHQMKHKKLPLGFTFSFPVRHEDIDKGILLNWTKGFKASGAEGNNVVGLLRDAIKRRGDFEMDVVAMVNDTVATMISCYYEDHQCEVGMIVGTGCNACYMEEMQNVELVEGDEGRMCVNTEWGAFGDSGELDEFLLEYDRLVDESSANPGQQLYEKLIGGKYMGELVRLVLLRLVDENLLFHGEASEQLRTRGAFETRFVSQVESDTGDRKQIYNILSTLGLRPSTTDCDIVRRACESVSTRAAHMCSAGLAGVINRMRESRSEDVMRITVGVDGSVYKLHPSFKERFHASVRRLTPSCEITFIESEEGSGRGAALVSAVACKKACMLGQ
Type: biochemical
Procedure, shortened: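 Activation readout is SC1.5, the activator concentration raising GK rate (OD340/min) 50% above 10% DMSO controls. The coupled reaction used GST-GK1 from E. coli, 5 mM glucose, 1 mM ATP, 1.8 mM NAD and 25 mM Hepes pH 7.1 at 30° C. Enzyme was added after a 10 min compound pre-incubation.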

Compound	fold activation @ 30 uM [fold]
Cn1ccc(NC(=O)C(CC2CCCC2)n2nc(Oc3ccccc3)ccc2=O)n1 (stereo not drawn) [Example 85, 3-cyclopentyl-N-(1-methyl-1H-pyrazol-3-yl)-2-(6-oxo-3-phenoxy-6H-pyridazin-1-yl)-propionamide]	1.3

Same assay, conditions: 5 mM D-glucose, 30° C., pH 7.1, 10% DMSO

Compound	SC1.5 average (concentration of activator that produced a 50% increase in the activity of GK) [µM]
O=C(Nc1ccn(C[C@@H](O)CO)n1)C(CC1CCCC1)n1ncc(Oc2ccccc2OC(F)(F)F)cc1=O (stereo partly drawn) [Example 98, 3-Cyclopentyl-N-[1-((R)-2,3-dihydroxy-propyl)-1H-pyrazol-3-yl]-2-[6-oxo-4-(2-trifluoromethoxy-phenoxy)-6H-pyridazin-1-yl]-propionamide]	0.244
O=C(O)c1ccc(NC(=O)C(CC2CCCC2)n2ncc(Oc3ccccc3F)cc2=O)nc1 (stereo not drawn) [Example 75, 6-{3-Cyclopentyl-2-[4-(2-fluoro-phenoxy)-6-oxo-6H-pyridazin-1-yl]-propionylamino}-nicotinic acid]	0.058
CC(C)(O)Cn1ccc(NC(=O)C(CC2CCCC2)n2ncc(Oc3cccnc3)cc2=O)n1 (stereo not drawn) [Example 28, 3-Cyclopentyl-N-[1-(2-hydroxy-2-methyl-propyl)-1H-pyrazol-3-yl]-2-[6-oxo-4-(pyridin-3-yloxy)-6H-pyridazin-1-yl]-propionamide]	1.925
CC(C)(O)Cn1ccc(NC(=O)C(CC2CCCC2)n2ncc(Oc3cccc(C(F)(F)F)c3)cc2=O)n1 (stereo not drawn) [Example 6, 3-Cyclopentyl-N-[1-(2-hydroxy-2-methyl-propyl)-1H-pyrazol-3-yl]-2-[6-oxo-4-(3-trifluoromethyl-phenoxy)-6H-pyridazin-1-yl]-propionamide]	0.844
CC(C)(O)Cn1ccc(NC(=O)C(CC2CCCC2)n2ncc(OCC3CCCC3)c(Cl)c2=O)n1 (stereo not drawn) [Example 10, 2-(5-Chloro-4-cyclopentylmethoxy-6-oxo-6H-pyridazin-1-yl)-3-cyclopentyl-N-[1-(2-hydroxy-2-methyl-propyl)-1H-pyrazol-3-yl]-propionamide]	11.438
O=C(Nc1ccn(C[C@@H](O)CO)n1)C(CC1CCCCC1)n1ncc(Oc2c(F)cccc2F)cc1=O (stereo partly drawn) [Example 63, 3-Cyclohexyl-2-[4-(2,6-difluoro-phenoxy)-6-oxo-6H-pyridazin-1-yl]-N-[1-((R)-2,3-dihydroxy-propyl)-1H-pyrazol-3-yl]-propionamide]	0.117
COC(=O)c1ccc(NC(=O)[C@@H](CC2CCCC2)n2ncc(Oc3c(F)cccc3F)cc2=O)nc1 [Example 68B, 6-{(R)-3-Cyclopentyl-2-[4-(2,6-difluoro-phenoxy)-6-oxo-6H-pyridazin-1-yl]-propionylamino}-nicotinic acid methyl ester]	0.597
CC(=O)c1ccccc1Oc1cnn(C(CC2CCCC2)C(=O)Nc2ccn(CC(C)(C)O)n2)c(=O)c1 (stereo not drawn) [Example 40, 2-[4-(2-Acetyl-phenoxy)-6-oxo-6H-pyridazin-1-yl]-3-cyclopentyl-N-[1-(2-hydroxy-2-methyl-propyl)-1H-pyrazol-3-yl]-propionamide]	0.228
Cn1ccc(NC(=O)C(CC2CCCC2)n2nc(Oc3ccccc3)ccc2=O)n1 (stereo not drawn) [Example 85, 3-cyclopentyl-N-(1-methyl-1H-pyrazol-3-yl)-2-(6-oxo-3-phenoxy-6H-pyridazin-1-yl)-propionamide]	> 30
O=C(Nc1ccn(CCO)n1)C(Cc1ccccc1)n1ncc(Oc2c(F)cccc2F)cc1=O (stereo not drawn) [Example 58, 2-[4-(2,6-Difluoro-phenoxy)-6-oxo-6H-pyridazin-1-yl]-N-[1-(2-hydroxy-ethyl)-1H-pyrazol-3-yl]-3-phenyl-propionamide]	2.719
CC(C)(O)Cn1ccc(NC(=O)C(CC2CCC2)n2ncc(Oc3c(F)cccc3F)cc2=O)n1 (stereo not drawn) [Example 49, 3-Cyclobutyl-2-[4-(2,6-difluoro-phenoxy)-6-oxo-6H-pyridazin-1-yl]-N-[1-(2-hydroxy-2-methyl-propyl)-1H-pyrazol-3-yl]-propionamide]	0.305
CC(C)(O)Cn1ccc(NC(=O)C(CC2CCOCC2)n2ncc(Oc3ccccc3Cl)c(Cl)c2=O)n1 (stereo not drawn) [Example 129, 2-[5-Chloro-4-(2-chloro-phenoxy)-6-oxo-6H-pyridazin-1-yl]-N-[1-(2-hydroxy-2-methyl-propyl)-1H-pyrazol-3-yl]-3-(tetrahydro-pyran-4-yl)-propionamide]	1.006
CC(C)(O)Cn1ccc(NC(=O)C(CC2CCCC2)n2ncc(Oc3cccc4cccnc34)cc2=O)n1 (stereo not drawn) [Example 39, 3-Cyclopentyl-N-[1-(2-hydroxy-2-methyl-propyl)-1H-pyrazol-3-yl]-2-[6-oxo-4-(quinolin-8-yloxy)-6H-pyridazin-1-yl]-propionamide]	0.499
CC(C)(O)Cn1ccc(NC(=O)C(CC2CCCC2)n2ncc([S+]([O-])c3ccccc3)cc2=O)n1 (stereo not drawn) [Example 124, 2-(4-Benzenesulfinyl-6-oxo-6H-pyridazin-1-yl)-3-cyclopentyl-N-[1-(2-hydroxy-2-methyl-propyl)-1H-pyrazol-3-yl]-propionamide]	2.461
Cn1nc(C(F)(F)F)cc1Oc1cnn(C(CC2CCCC2)C(=O)Nc2ccn(C[C@@H](O)CO)n2)c(=O)c1 (stereo partly drawn) [Example 103, 3-Cyclopentyl-N-[1-((R)-2,3-dihydroxy-propyl)-1H-pyrazol-3-yl]-2-[4-(2-methyl-5-trifluoromethyl-2H-pyrazol-3-yloxy)-6-oxo-6H-pyridazin-1-yl]-propionamide]	2.591
Cc1occc(=O)c1Oc1cnn(C(CC2CCCC2)C(=O)Nc2ccn(C[C@@H](O)CO)n2)c(=O)c1 (stereo partly drawn) [Example 97, 3-Cyclopentyl-N-[1-((R)-2,3-dihydroxy-propyl)-1H-pyrazol-3-yl]-2-[4-(2-methyl-4-oxo-4H-pyran-3-yloxy)-6-oxo-6H-pyridazin-1-yl]-propionamide]	1.895
O=C(Nc1ccn(C[C@@H](O)CO)n1)C(CC1CCCC1)n1ncc(Oc2ccccc2Cl)cc1=O (stereo partly drawn) [Example 128, 2-[4-(2-Chloro-phenoxy)-6-oxo-6H-pyridazin-1-yl]-3-cyclopentyl-N-[1-((R)-2,3-dihydroxy-propyl)-1H-pyrazol-3-yl]-propionamide]	0.093
CC(C)(O)Cn1ccc(NC(=O)[C@H](CC2CCCC2)n2ncc(Oc3ccccc3C(F)(F)F)cc2=O)n1 [Example 11A, (S)-3-Cyclopentyl-N-[1-(2-hydroxy-2-methyl-propyl)-1H-pyrazol-3-yl]-2-[6-oxo-4-(2-trifluoromethyl-phenoxy)-6H-pyridazin-1-yl]-propionamide]	0.099
CC(C)(O)Cn1ccc(NC(=O)[C@H](CC2CCCC2)n2ncc(Oc3cccc4c3CCCC4)cc2=O)n1 [Example 17A, (S)-3-Cyclopentyl-N-[1-(2-hydroxy-2-methyl-propyl)-1H-pyrazol-3-yl]-2-[6-oxo-4-(5,6,7,8-tetrahydro-naphthalen-1-yloxy)-6H-pyridazin-1-yl]-propionamide]	0.051
Cc1cccc(Oc2cnn(C(CC3CCCC3)C(=O)Nc3ccn(C[C@@H](O)CO)n3)c(=O)c2)n1 (stereo partly drawn) [Example 99, 3-Cyclopentyl-N-[1-((R)-2,3-dihydroxy-propyl)-1H-pyrazol-3-yl]-2-[4-(6-methyl-pyridin-2-yloxy)-6-oxo-6H-pyridazin-1-yl]-propionamide]	1.277
CCOc1ccc(F)c(Oc2cnn(C(CC(C)C)C(=O)Nc3ccn(C[C@@H](O)CO)n3)c(=O)c2)c1F (stereo partly drawn) [Example 120, 2-[4-(3-ethoxy-2,6-difluoro-phenoxy)-6-oxo-6H-pyridazin-1-yl]-4-methyl-pentanoic acid [1-((R)-2,3-dihydroxy-propyl)-1H-pyrazol-3-yl]-amide]	0.18
CC(C)(O)Cn1ccc(NC(=O)C(CC2CCCCC2)n2ncc(Oc3ccccc3)c(Cl)c2=O)n1 (stereo not drawn) [Example 136, 2-(5-Chloro-6-oxo-4-phenoxy-6H-pyridazin-1-yl)-3-cyclohexyl-N-[1-(2-hydroxy-2-methyl-propyl)-1H-pyrazol-3-yl]-propionamide]	1.17
COC(=O)c1ccc(NC(=O)C(CC2CCCC2)n2ncc(Oc3ccccc3C3CCCC3)cc2=O)nc1 (stereo not drawn) [Example 66, 6-{3-Cyclopentyl-2-[4-(2-cyclopentyl-phenoxy)-6-oxo-6H-pyridazin-1-yl]-propionylamino}-nicotinic acid methyl ester]	1.74
